Results taken from publication PMC8989888, “Development of optimized drug-like small molecule inhibitors of the SARS-CoV-2 3CL protease for treatment of COVID-19” (Nature Communications, 2022).
“And” between values parts separate entries of the source, which are not always exact repeats. Identical values can stand only once. Like-named read-outs stand apart in the source and are kept apart here.

How the values were obtained:
SARS-CoV-2 3CL protease [1] = target: T1, SARS-CoV-2 3CL protease (Severe acute respiratory syndrome coronavirus 2, UniProt P0DTD1); assay: biochemical; settings: for Normalized SARS-CoV-2 3CL protease activity: 0.2 µM protease with 50 µM tested compound; for Normalized SARS-CoV-2 3CL protease activity / % SARS-CoV-2 3CL activity: replicates
SARS-CoV-2 3CL protease [2] = target: T1, SARS-CoV-2 3CL protease; assay: cell-based
SARS-CoV-2 = assay: microbe, parasite or virus in culture; assay type: cell-based
human chymotrypsin = assay: Chymotrypsin activity assay (Panc-1 cell lysate); assay type: biochemical
SARS-CoV-2 3CL protease [3] = target: T1, SARS-CoV-2 3CL protease; assay type: binding
SARS-CoV-2 3CL protease [4] = target: T1, SARS-CoV-2 3CL protease; assay type: binding; remark: listed apart in the source
SARS-CoV-2 3CL protease [5] = target: T1, SARS-CoV-2 3CL protease; assay: biochemical
[6] = system: Influenza A H1N1 (strain: California/07/2009); assay: microbe, parasite or virus in culture; assay type: cell-based; settings: Influenza A virus, H1N1, MDCK, read-out: Influenza A (H1N1) MDCK EC50
[7] = 20 nM protease, read-out: SARS-CoV-2 3CLpro IC50

## O=C(/C=C/c1ccc(F)cc1)Oc1cc(Cl)c[nH]c1=O [Z14]
SARS-CoV-2 3CL protease [1]
  Normalized SARS-CoV-2 3CL protease activity: 1.002 and 0.9823 and 0.9751
SARS-CoV-2 3CL protease [2]
  Absorbance (crystal violet), SARS-CoV-2 3CLpro: 0.1689 and 0.1739

## O=c1c2ccccc2[se]n1-c1ccccc1 [ebselen, reference compound]
SARS-CoV-2 3CL protease [1]; 200 nM protease, log10[nM] 0.404879
  % SARS-CoV-2 3CL activity: 89.3778% and 107.442% and 103.181%
SARS-CoV-2 3CL protease [1]; 200 nM protease, log10[nM] 0.882
  % SARS-CoV-2 3CL activity: 94.9547% and 93.3775% and 98.4402%
SARS-CoV-2 3CL protease [1]; 200 nM protease, log10[nM] 1.35912
  % SARS-CoV-2 3CL activity: 94.2663% and 88.5936% and 99.7037%
SARS-CoV-2 3CL protease [1]; 200 nM protease, log10[nM] 1.83624
  % SARS-CoV-2 3CL activity: 88.0185% and 85.2126% and 81.8055%
SARS-CoV-2 3CL protease [1]; 200 nM protease, log10[nM] 2.31336
  % SARS-CoV-2 3CL activity: 61.5633% and 42.9069% and 50.6187%
SARS-CoV-2 3CL protease [1]; 200 nM protease, log10[nM] 2.79048
  % SARS-CoV-2 3CL activity: 10.2823% and 8.339% and 9.272%
SARS-CoV-2 3CL protease [1]; 200 nM protease, log10[nM] 3.26761
  % SARS-CoV-2 3CL activity: 7.59% and 9.629% and 7.886%
SARS-CoV-2 3CL protease [1]; 200 nM protease, log10[nM] 3.74473
  % SARS-CoV-2 3CL activity: 6.213% and 7.476% and 5.15%
SARS-CoV-2 3CL protease [1]; 200 nM protease, log10[nM] 4.22185
  % SARS-CoV-2 3CL activity: 3.895% and 5.307% and 2.98%
SARS-CoV-2 3CL protease [1]; 200 nM protease, log10[nM] 4.69897
  % SARS-CoV-2 3CL activity: -2.597% and 1.403% and 1.1938%
SARS-CoV-2 3CL protease [1]; 200 nM protease, log10[nM] -0.0722425
  % SARS-CoV-2 3CL activity: 107.261% and 104.787% and 112.511%
SARS-CoV-2 3CL protease [1]; 200 nM protease, log10[nM] -0.549364
  % SARS-CoV-2 3CL activity: 92.7537% and 98.0597% and 109.187%
SARS-CoV-2; Severe acute respiratory syndrome coronavirus 2, Vero C1008, 72 h, read-out: EC50, inhibition of SARS-CoV-2 viral replication
  EC50: 800 nM
Human chymotrypsin; 10µM compound, 100 µg Panc-1 cell lysate, replicates
  Normalized chymotrypsin activity: 0.8849 and 0.7812 and 0.7681
SARS-CoV-2 3CL protease [3]; ITC
  binding stoichiometry: didn’t reach saturation until a high molar ratio
SARS-CoV-2 3CL protease [4]
  binding to 3CL protease by mass spectrometry (in words): binding of multiple ebselen molecules to each 3CL protease molecule

## Cc1ncsc1C(=O)Oc1cncc(Cl)c1 [Z91]
SARS-CoV-2 3CL protease [1]; 20 nM protease, log10[nM] 0.19382
  % SARS-CoV-2 3CL activity: 84.3886% and 89.3518%
SARS-CoV-2 3CL protease [1]; 20 nM protease, log10[nM] 0.49485
  % SARS-CoV-2 3CL activity: 71.2882% and 83.5648%
SARS-CoV-2 3CL protease [1]; 20 nM protease, log10[nM] 0.79588
  % SARS-CoV-2 3CL activity: 67.1397% and 68.9815%
SARS-CoV-2 3CL protease [1]; 20 nM protease, log10[nM] 1.09691
  % SARS-CoV-2 3CL activity: 60.4804% and 65.625%
SARS-CoV-2 3CL protease [1]; 20 nM protease, log10[nM] 1.39794
  % SARS-CoV-2 3CL activity: 57.3144% and 59.9537%
SARS-CoV-2 3CL protease [1]; 20 nM protease, log10[nM] 1.69897
  % SARS-CoV-2 3CL activity: 31.5502% and 53.125%
SARS-CoV-2 3CL protease [1]; 20 nM protease, log10[nM] 2
  % SARS-CoV-2 3CL activity: 18.6681% and 32.7546%
SARS-CoV-2 3CL protease [1]; 20 nM protease, log10[nM] 2.30103
  % SARS-CoV-2 3CL activity: 6.9869% and 23.0324%
SARS-CoV-2 3CL protease [1]; 20 nM protease, log10[nM] 2.60206
  % SARS-CoV-2 3CL activity: 2.62% and 4.745%
SARS-CoV-2 3CL protease [1]; 20 nM protease, log10[nM] 2.90309
  % SARS-CoV-2 3CL activity: 0%
SARS-CoV-2 3CL protease [1]; 20 nM protease, log10[nM] -0.10721
  % SARS-CoV-2 3CL activity: 87.0087% and 88.8889%
SARS-CoV-2 3CL protease [1]; 20 nM protease, log10[nM] -0.40824
  % SARS-CoV-2 3CL activity: 100%
SARS-CoV-2 3CL protease [1]; [7]
  IC50: 31 nM
SARS-CoV-2 3CL protease [1]
  Normalized SARS-CoV-2 3CL protease activity: 0.02131 and 0.02295 and 0.01967
SARS-CoV-2 3CL protease [2]
  Absorbance (crystal violet), SARS-CoV-2 3CLpro: 0.1428 and 0.134

## O=C(N[C@@H](CC1CCCCC1)C(=O)N[C@@H](C[C@@H]1CCNC1=O)C(O)S(=O)(=O)O)OCc1ccccc1 (stereo partly shown) [SL-4-241]
SARS-CoV-2 3CL protease [5]
  observed inactivation rate vs compound concentration (Figure S19, replicate values): 0.0986 and 0.0638 and 0.0852 and 0.1375 and 0.0874 and 0.0292 and 0.1342 and 0.0676 and 0.0349 and 0.0089 and 0.0058 and 0.057 and 0.065 and 0.0135 and 0.036 and 0.0158 and 0.0274 and 0.003 and 0.0091 and 0.01 and -0.00355
SARS-CoV-2 3CL protease [5]; read-out: SARS-CoV-2 3CLpro kinact/KI
  kinact/KI: 23300 M⁻¹ s⁻¹
SARS-CoV-2 3CL protease [1]; [7]
  IC50: 75 nM
SARS-CoV-2 3CL protease [1]; Concentration of inhibitor (nM) 0.19382
  normalized activity, dose-response curve (Figure S16): 94.2892 and 94.3168
SARS-CoV-2 3CL protease [1]; Concentration of inhibitor (nM) 0.49485
  normalized activity, dose-response curve (Figure S16): 87.5254 and 99.9152
SARS-CoV-2 3CL protease [1]; Concentration of inhibitor (nM) 0.79588
  normalized activity, dose-response curve (Figure S16): 89.3075 and 94.6561
SARS-CoV-2 3CL protease [1]; Concentration of inhibitor (nM) 1.09691
  normalized activity, dose-response curve (Figure S16): 90.077 and 87.1492
SARS-CoV-2 3CL protease [1]; Concentration of inhibitor (nM) 1.39794
  normalized activity, dose-response curve (Figure S16): 78.3315 and 75.5284
SARS-CoV-2 3CL protease [1]; Concentration of inhibitor (nM) 1.69897
  normalized activity, dose-response curve (Figure S16): 69.502 and 62.8473
SARS-CoV-2 3CL protease [1]; Concentration of inhibitor (nM) 2
  normalized activity, dose-response curve (Figure S16): 41.1102 and 41.9808
SARS-CoV-2 3CL protease [1]; Concentration of inhibitor (nM) 2.30103
  normalized activity, dose-response curve (Figure S16): 10.8147 and 10.0871
SARS-CoV-2 3CL protease [1]; Concentration of inhibitor (nM) 2.60206
  normalized activity, dose-response curve (Figure S16): 3.241 and 2.3258
SARS-CoV-2 3CL protease [1]; Concentration of inhibitor (nM) -0.10721
  normalized activity, dose-response curve (Figure S16): 98.5824 and 101.484
SARS-CoV-2 3CL protease [1]; Concentration of inhibitor (nM) -0.40824
  normalized activity, dose-response curve (Figure S16): 100
SARS-CoV-2; Severe acute respiratory syndrome coronavirus 2, Vero C1008, read-out: SARS-CoV-2 Vero E6 EC50
  EC50: 17000 nM
SARS-CoV-2 3CL protease [4]
  binding to 3CL protease by mass spectrometry (in words): blocked the covalent binding of 10 equivalents of compound 4

## Cn1ncc(C(=O)Oc2cncc(Cl)c2)c1-n1cccc1 [Z26]
SARS-CoV-2 3CL protease [1]
  Normalized SARS-CoV-2 3CL protease activity: 0.2302 and 0.2702 and 0.2695
SARS-CoV-2 3CL protease [2]
  Absorbance (crystal violet), SARS-CoV-2 3CLpro: 0.1558 and 0.1505

## O=C(Oc1cncc(Cl)c1)c1cccs1 [MAC-5576, reference compound]
SARS-CoV-2 3CL protease [1]; IC50
  IC50: 93 nM
SARS-CoV-2 3CL protease [1]; SARS-CoV-2 3CLpro IC50
  IC50: 10 nM
SARS-CoV-2
  % SARS-CoV-2 inhibition: -2%
  EC50, inhibition of SARS-CoV-2 viral replication: did not
Human chymotrypsin
  Normalized chymotrypsin activity: 1.078 and 0.9826 and 0.9946
SARS-CoV-2 3CL protease [3]
  binding stoichiometry: 1.2 ± 0.2
SARS-CoV-2 3CL protease [4]
  binding to 3CL protease by mass spectrometry (in words): one-to-one complex

## NC(=O)c1ncn([C@@H]2O[C@H](CO)[C@@H](O)[C@H]2O)n1 [Ribavirin, reference compound]
[6]
  EC50: 3200 nM

## CN(C)S(=O)(=O)c1ccc(C(=O)Oc2cc(Cl)c[nH]c2=O)cc1 [Z97]
SARS-CoV-2 3CL protease [1]
  Normalized SARS-CoV-2 3CL protease activity: 0.9508 and 0.9056 and 0.9639
SARS-CoV-2 3CL protease [2]
  Absorbance (crystal violet), SARS-CoV-2 3CLpro: 0.1516 and 0.1477
